Laboratory results published in patent US20200188388A1, “METHODS AND COMPOSITIONS FOR PO[…] DRUGS AND REDUCING THEIR SIDE EFFECTS” (RVX THERAPEUTICS LTD., priority 2016, published 2020).
Values joined by “and” are separate entries in the source; they are usually repeats but may differ in a detail not shown here. Equal entries are not always repeated. Where two headings read alike, the source gives them in different places.

Assays:
male Wistar rats = assay: Opioid hyperalgesia in tail and paw withdrawal tests (% rats)
Wistar rats [1] = assay: Open field test, hypokinetic (sedative) or hyperkinetic action (analgesia examples); settings: for Hyperkinesia or sedataion / Hyperkinesia / Hyperkinesia or sedation: unmarked cells; for Hyperkinesia or sedataion: doses as E12; for Hyperkinesia or sedation: doses as E6; for Horizontal locomotive activity: control 16.1
Method: (§1) To evaluate the hypokinetic (sedative) or hyperkinetic action effects of tested drugs an “open field” (OF) test was applied. In the OF test, the locomotive activity of rats is determined. Animals were placed in the center of square of the illuminated field (1 meter×1 meter) for 3 minutes and the mobility time was recorded in seconds (horizontal activity). […] To quantify the locomotive activity for each dose of test drug(s) an average horizontal activity was calculated.
as §1
To evaluate the hypokinetic (sedative) effects of drugs, “open field” (OF) test was applied. In the OF test, the locomotive activity of rats is determined. Animals were placed in the center of square of the illuminated field (1 meter×1 meter) for 3 minutes and the mobility time was recorded in seconds (horizontal activity). […] To quantify the locomotive activity for each dose of test drug(s), an average horizontal activity was calculated.
Tail-Flick and Open Field Tests were Conducted as Detailed Above.
as §1

Wistar rats [2] = assay: Rotenone model: hyperkinetic side effect in open field test (days 10 and 18); assay type: in vivo, rat; settings: for Hyperkmesia (% of group): phenylephrine 0.3 mg/kg oral
Method: Anti-parkinsonian effect of therapy in rats with rotenone-induced PD was estimated according to elimination of extrapyramidal disorders (catalepsy) and oligokinesia (rapid decreased amplitude and velocity of repeated movements) in the “open field” test. The neuro-protective effect of therapy was evaluated by the elimination of ataxia limb dystonia and mortality in rats with rotenone-induced PSP. Hyperkinetic side action (hyper-locomotion) was evaluated by increased horizontal and vertical activity in the open field at the 10th and 18th day of the experiment, calculated in % compared to the first day of the experiment.
Ataxia and limb dystonia registration was performed twice daily, 30 minutes before administration of rotenone and 180 minutes after administration of rotenone. For each experimental group on a daily basis, throughout the whole period of observation number of rats with severe ataxia and limb dystonia (++−+++) and mortality in % of the total number of rats in group was determined. The neuro-protective effect of therapy (effects on rate of ataxia, limb dystonia and lethality) in rats with PSP was determined at days 12 and 19 of the experiment as reducing the number of rats with severe ataxia limb dystonia and mortality in % compared to control. Side hyperkinetic effects were evaluated in the “open field” test. In this test the locomotive activity in rats is determined. […] Registration of horizontal and vertical locomotive activity in OF assay was performed on the 10th and 18th day of the experiment, within 40 minutes after administration of the substance and 5 minutes before administration of rotenone. Side hyperkinetic effects was evaluated by the number of rats with a significant (at least 50% compared with the first day of the experiment) increase in horizontal and vertical activity (hyperkinesia) as a % of the total number of rats in group.
Anti-parkinsonian effect of therapy in rats with rotenone-induced parkinsonism was estimated according to elimination of extrapyramidal disorders (catalepsy) and oligokinesia in the “open field” test. The neuro-protective effect of therapy was evaluated by the elimination of ataxia and mortality in rats with rotenone-induced PSP. Hyperkinetic side action (hyper-locomotion) was evaluated by increased horizontal and vertical activity in the open field at the 10th and 18th day of the experiment, calculated in % compared to the first day of the experiment.
The neuro-protective effect in the experimental groups of rats with rotenone-induced PSP was evaluated due the elimination of ataxia and mortality caused by neurotoxic action of rotenone. Ataxia is typical incoordination neurotoxic effect of rotenone manifested in uncoordinated movements and hyper-locomotion, replaced by hypokinesia and stereotypes, and in severe cases a complete violation of antigravity reflexes, falling on its side and akinesia. Assessment of the severity of ataxia in scores was performed using the following scale: (+) uncoordinated movement, hyperkinesia; (++) significant incoordination, hypokinesia, stereotypes, falling on its side; (+++) complete violation of antigravity reflexes, akinesia. Ataxia registration was performed twice daily, 30 minutes before administration of rotenone and 180 minutes after administration of rotenone. For each experimental group on a daily basis, throughout the whole period of observation number of rats with severe ataxia (++−+++) and mortality in % of the total number of rats in group was determined. The neuro-protective effect of therapy (effects on rate of ataxia and lethality) in rats with PSP was determined at days 12 and 19 of the experiment as reducing the number of rats with severe ataxia and mortality in % compared to control. Side hyperkinetic effects were evaluated in the “open field” test. In this test the locomotive activity in rats is determined. […]

Wistar rats [3] = assay: Open field test, hyperkinetic side effects (haloperidol catalepsy examples); assay type: in vivo, rat; settings: oral
Method: To evaluate the side hyperkinetic effects of drugs, the test an “open field” (OF) test was applied. […] To quantify the locomotive activity for each dose of the test drug(s), an average horizontal activity was calculated.

Wistar rats [4] = assay: Rotenone-induced PD: severe oligokinesia in open field test; assay type: in vivo, rat; settings: for Severe oligokinesia (% of group): phenylephrine 0.3 mg/kg oral, oligokinesia ++-+++ in OF test; for Severe oligokinesia, Day 12 / Severe oligokinesia, Day 19: control 100
Method: Locomotive activity of rats was tested in the “open field” test. […] Registration of horizontal and vertical locomotive activity was carried out in first day for rats with high selection locomotive activity (total walking time with not less than 12 seconds and the number of vertical uprights at least 4), 60 minutes before the first administration of rotenone. To identify the rotenone-induced oligokinesia in each experimental group the locomotive activity in the open field test was examined again 2 hours after the administration of rotenone on days 12 and 19 of the experiment.
(§2) Quantification of oligokinesia in points: 0 points—the highest horizontal activity (walking total time more than 12 seconds) and high vertical activity (number of vertical posts) more than 3; 1 point—reducing the horizontal activity (total walking time 7-11 seconds) and a decrease in vertical activity (the number of vertical columns 1-3); 2 points—a significant reduction in horizontal activity (total walking time 2-6 seconds) and the absence of vertical activity (the number of vertical columns 0-1); 3 points—the absence of horizontal activity (total walking time 0-1 seconds) and the absence of vertical activity (number of vertical columns 0). In each experimental group 120 minutes after administration of rotenone on days 12 and 19 of experiment the number of rats with severe oligokinesia (2-3 points) in % of the total number of rats in group was determined.
Locomotive activity of rats was tested in the “open field” test. […] Registration of horizontal and vertical locomotive activity was carried out in first day for rats with high selection locomotive activity (total walking time with not less than 12 seconds and the number of vertical uprights at least 4), 60 minutes before the first administration of rotenone. To identify the rotenone-induced oligokynesia in each experimental group the locomotive activity in the open field test was examined again 2 hours after the administration of rotenone on days 12 and 19 of the experiment.
as §2, with “of oligokynesia” for “of oligokinesia”

Cc1c(N(C)CS(=O)(=O)[O-])c(=O)n(-c2ccccc2)n1C.[Na+] [Dipyrone, dipyrone]
Hyperalgesia (male Wistar rats; doses as E12): 0 % rats | Hyperalgesia (male Wistar rats; doses as E54): 0 % rats | Hyperkinesia or sedataion (Wistar rats [1]): 0 % rats | Hyperkinesia (Wistar rats [1]; doses as E54): 0 % rats

CNC[C@H](O)c1ccc(O)c(O)c1 [Epinephrine, epinephrine]
Hyperalgesia (male Wistar rats; doses as E6): 0 % rats | Hyperalgesia (male Wistar rats; doses as E48): 0 % rats | Locomotive horizontal activity in open field (Wistar rats [1]; I.M., control 15.6, doses by row as E32): 15.4 s and 15.9 s and 17.6 s | Sedation (Wistar rats [1]; I.M., doses by row as E3): 0 % of Rats | Sedation (Wistar rats [1]; I.M., doses by row as E32): 0% of group | Hyperkinesia or sedation (Wistar rats [1]): 0 % rats | Hyperkinesia (Wistar rats [1]; doses as E48): 0 % rats

CNC[C@H](O)c1cccc(O)c1 [Phenylephrine, phenylephrine]
Hyperalgesia (male Wistar rats; doses as E12): 0 % rats | Hyperalgesia (male Wistar rats; doses as E54): 0 % rats | Horizontal locomotive activity (Wistar rats [1]; oral, doses as E35): 15.9 s and 16.3 s and 17.9 s | Sedation (Wistar rats [1]; oral, doses as E35): 0% of group | Hyperkinesia or sedataion (Wistar rats [1]): 0 % rats | Hyperkinesia (Wistar rats [1]; doses as E54): 0 % rats | Hyperkinesia, Day 18 (Wistar rats [2]): 0 % of group | Hyperkmesia (% of group) (Wistar rats [2]; Day 10, locomotive activity in OF test increased more than 50% vs first day): 0 % of group | Hyperkmesia (% of group) (Wistar rats [2]; Day 18, locomotive activity in OF test increased more than 50% vs first day): 0 % of group | Hyperkinesia, Day 10 (Wistar rats [2]; doses as E38): 0 % of group | Hyperkinesia, Day 18 (Wistar rats [2]; doses as E38): 0 % of group | Hyperkinesia, Day 10 (Wistar rats [2]; locomotive activity in OF test increased more than 50% vs first day): 0 % of group | Hyperkinesia (Wistar rats [3]; doses by row as E18): 0 % of Rats | Hyperkinesia (Wistar rats [3]; doses by row as E30): 0 % of Rats | Hyperkinesia (Wistar rats [3]; doses by row as E60): 0 % of Rats | Hyperkinesia (Wistar rats [3]; open field 40 min after dosing, doses by row as E1): 0 % of Rats | Severe oligokinesia (% of group) (Wistar rats [4]; Day 12): 86 % of group | Severe oligokinesia (% of group) (Wistar rats [4]; Day 19): 100 % of group | Severe oligokinesia, Day 12 (Wistar rats [4]): 86 % of group | Severe oligokinesia, Day 19 (Wistar rats [4]): 100 % of group | Severe oligokinesia, Day 12 (Wistar rats [4]; doses as E38): 90 % of group | Severe oligokinesia, Day 19 (Wistar rats [4]; doses as E38): 100 % of group

CN1CC[C@]23c4c5ccc(O)c4O[C@H]2[C@@H](O)C=C[C@H]3[C@H]1C5 [Morphine, morphine]
Horizontal locomotive activity (Wistar rats [1]; oral, doses as E35): 15.5 s and 13.2 s and 7.8 s | Hyperkinesia or sedation (Wistar rats [1]): 0 % rats | Hyperkinesia or sedataion (Wistar rats [1]): 0 % rats | Hyperkinesia (Wistar rats [1]; doses as E48): 0 % rats | Hyperkinesia (Wistar rats [1]; doses as E54): 0 % rats

CN(C)CCC=C1c2ccccc2CCc2ccccc21 [Amitriptyline, amitriptyline]
Hyperalgesia (male Wistar rats; doses as E12): 0 % rats | Hyperalgesia (male Wistar rats; doses as E54): 0 % rats | Hyperkinesia or sedataion (Wistar rats [1]): 0 % rats | Hyperkinesia (Wistar rats [1]; doses as E54): 0 % rats
